Measurements: patent USRE48335E1, “Polymyxin derivatives as antimicrobial compounds” (priority 2014, dated 2020)
Converted amounts (≈) assume the structure as drawn. Where two headings read alike, the source gives them in different places. Positions of bridges follow the written chain, without caps; N, C: chain ends. Non-standard residues stand in square brackets, D forms with d. Residues, ends and D or L forms follow the SMILES beside them. *: point of attachment. Benzoyl(3-CF3) = O=C(c1cccc(C(F)(F)F)c1)*; Benzoyl(4-Ph) = O=C(c1ccc(-c2ccccc2)cc1)*; X24 = Cc1ccc(C(=O)*)c(C)c1; dNle = CCCC[C@@H](N)C(=O)O; Octanoyl = CCCCCCCC(=O)*; Dab = NCC[C@H](N)C(=O)O; Abu = CC[C@H](N)C(=O)O; Dap = NC[C@H](N)C(=O)O

Tests used:
Acinetobacter baumannii = system: Acinetobacter baumannii
How it was run: (§1)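 Broth microdilution, CAMHB, per CLSI M100-S18; compounds as TFA salts; polymyxin B (sulphate) control; read-out MIC.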

Enterobacter cloacae = system: Enterobacter cloacae
How it was run: as §1

Klebsiella pneumoniae = system: Klebsiella pneumoniae
How it was run: as §1

Pseudomonas aeruginosa = system: Pseudomonas aeruginosa
How it was run: as §1

P. aeruginosa ATCC 27853 = assay: In vivo efficacy in mouse blood infection model (neutropenic Swiss mice); details: compound, free base 4 mg/kg intravenously 2 h after inoculation, blood at 4 h
Description: P. aeruginosa ATCC 27853, A. baumannii ATCC 19606 and K. pneumoniae FADDI-KP032 were subcultured on nutrient agar plates. One colony of each bacterial strain was dispersed in 10-mL CAMHB and incubated overnight. On day 2, an aliquot (0.2 mL) of each overnight culture suspension was dispersed in 20-mL CAMHB and incubated for 1.5-2.5 h for production of early log-phase growth bacterial culture. The bacteria in the early log-phase growth suspension were concentrated by centrifugation (3,220 g for 10 min) and re-suspended in sterile 0.9% saline for inoculation into mice. The bacterial cell concentration (colony forming unit [CFU]/mL) in saline was estimated by determining the optical density (OD) of the suspension at 600 nm, and confirmed by plating the suspension on nutrient agar plates. Swiss mice (22 to 28 g) were rendered neutropenic by injecting two doses of cyclophosphamide intraperitoneally, −4 day (150 mg/kg) and −1 day (100 mg/kg) prior to inoculation. Bloodstream infection was established by injecting intravenously 50 μL of early log-phase bacterial suspension (10^8-10^9 CFU/mL). The exact injection volume for each bacterial suspension was calculated based upon the OD value of the bacterial suspension and the desired inoculum for each isolate.
Solutions for administration of colistin, polymyxin B or the compounds were prepared at a concentration of 1 mg (free base) per mL in sterile 0.9% saline. At 2 h after inoculation, a mouse in the treatment groups was injected intravenously with one of the above solutions at 4 μL/g body weight (BW) (i.e. free base 4 mg/kg BW), while the same volume of saline was injected into the control mice. At 0 h or at 4 h after the administration of antibacterial drug or saline (control), animals were euthanised by inhalation of overdose isoflurane. The skin on the chest and fore-paws of each animal was thoroughly cleansed with 70% ethanol and Betadine®. The blood was collected via cardiac puncture using a 1-mL syringe rinsed with heparin (5,000 IU/mL), diluted serially in sterile 0.9% saline and plated on nutrient agar plates using a spiral plater.
The agar plates were incubated at 37° C. overnight. The bacterial colonies on the plate were counted and CFU/mL of the blood was calculated. The log10 CFU/mL of blood in each mouse was calculated. The in vivo activity of the compounds against the bacteria was calculated as the difference of the log10 CFU/mL values between the treated mice and the control mice at 4 h (Δ log=log10 (treated)CFU/mL−log10 (control)CFU/mL).
Any compound showing a decrease in bacterial loading (Δ log) of ≥2 at 4 h is considered to have good in vivo efficacy in this initial screening model.

Structure (SMILES) | MIC (Acinetobacter baumannii) [µg/mL] | MIC (Klebsiella pneumoniae) [µg/mL] | MIC (Pseudomonas aeruginosa) [µg/mL] | Minimum inhibitory concentration, Ab A ATCC 17978 (Acinetobacter baumannii) [µg/mL] | Minimum inhibitory concentration, Ab ATCC 19606 (Acinetobacter baumannii) [µg/mL] | Minimum inhibitory concentration, Ab FADDI-AB034 (Acinetobacter baumannii) [µg/mL] | Minimum inhibitory concentration, Ec FADDI-EC001 (Enterobacter cloacae) [µg/mL] | Minimum inhibitory concentration, Ec FADDI-EC003 (Enterobacter cloacae) [µg/mL] | Minimum inhibitory concentration, Ec FADDI-EC006 (Enterobacter cloacae) [µg/mL] | Minimum inhibitory concentration, Pa ATCC 27853 (Pseudomonas aeruginosa) [µg/mL] | Minimum inhibitory concentration, Pa FADDI-PA022 (Pseudomonas aeruginosa) [µg/mL] | Minimum inhibitory concentration, Pa FADDI-PA025 (Pseudomonas aeruginosa) [µg/mL] | Δ log (Treated-Control at 4 h) (P. aeruginosa ATCC 27853) [log10 CFU/mL] | other results
CCCC[C@H]1NC(=O)[C@H](CCN)NC(=O)[C@@H](NC(=O)[C@H](CN)NC(=O)[C@@H](NC(=O)[C@H](CCN)NC(=O)c2cccc(C(F)(F)F)c2)[C@@H](C)O)CCNC(=O)[C@H]([C@@H](C)O)NC(=O)[C@H](CCN)NC(=O)[C@H](CCN)NC(=O)[C@H](C)NC1=O [Compound 125] ({Benzoyl(3-CF3)}-[Dab]T[Dap][Dab][Dab][dNle]A[Dab][Dab]T; lactam 4-C) | 1 (≈ 0.873 µM) | 0.25 (≈ 0.218 µM) | 0.25 (≈ 0.218 µM) | 1 (≈ 0.873 µM) | 1 (≈ 0.873 µM) | 0.5 (≈ 0.437 µM) | 0.5 (≈ 0.437 µM) | 0.5 (≈ 0.437 µM) | 1 (≈ 0.873 µM) | 0.25 (≈ 0.218 µM) | 0.5 (≈ 0.437 µM) | 2 (≈ 1.75 µM) | −3.66 | –
C[C@@H](O)[C@@H]1NC(=O)[C@H](CCN)NC(=O)[C@H](CCN)NC(=O)[C@H]([C@@H](C)O)NC(=O)[C@@H](Cc2ccccc2)NC(=O)[C@H](CCN)NC(=O)[C@@H](NC(=O)[C@H](CN)NC(=O)[C@@H](NC(=O)[C@H](CCN)NC(=O)c2cccc(C(F)(F)F)c2)[C@@H](C)O)CCNC1=O [Compound 124] ({Benzoyl(3-CF3)}-[Dab]T[Dap][Dab][Dab][dF]T[Dab][Dab]T; lactam 4-C) | 1 (≈ 0.827 µM) | 0.25 (≈ 0.207 µM) | 0.25 (≈ 0.207 µM) | 1 (≈ 0.827 µM) | 1 (≈ 0.827 µM) | 0.25 (≈ 0.207 µM) | 0.5 (≈ 0.413 µM) | <0.125 | 0.5 (≈ 0.413 µM) | 0.25 (≈ 0.207 µM) | 0.5 (≈ 0.413 µM) | 2 (≈ 1.65 µM) | −3.36 | –
CC(C)C[C@H]1NC(=O)[C@H](CCN)NC(=O)[C@@H](NC(=O)[C@H](CCN)NC(=O)[C@@H](NC(=O)[C@H](CCN)NC(=O)c2ccc(-c3ccccc3)cc2)[C@@H](C)O)CCNC(=O)[C@H]([C@@H](C)O)NC(=O)[C@H](CCN)NC(=O)[C@H](CCN)NC(=O)[C@H]([C@@H](C)O)NC1=O [Compound 29] ({Benzoyl(4-Ph)}-[Dab]T[Dab][Dab][Dab][dL]T[Dab][Dab]T; lactam 4-C) | – | – | – | – | – | – | – | – | – | – | – | – | −2.80 | MIC (Acinetobacter baumannii; A. baumannii ATCC 19606): 8 µg/mL (≈ 6.68 µM); Minimum inhibitory concentration, Ab A ATCC 17978 (Acinetobacter baumannii; Acinetobacter baumannii ATCC 17978, broth microdilution in CAMHB): 2 µg/mL (≈ 1.67 µM); Minimum inhibitory concentration, Ab ATCC 19606 (Acinetobacter baumannii; Acinetobacter baumannii ATCC 19606, broth microdilution in CAMHB): 8 µg/mL (≈ 6.68 µM); Minimum inhibitory concentration, Ab FADDI-AB034 (Acinetobacter baumannii; Acinetobacter baumannii FADDI-AB034, broth microdilution in CAMHB): 4 µg/mL (≈ 3.34 µM); Minimum inhibitory concentration, Ec FADDI-EC001 (Enterobacter cloacae; Enterobacter cloacae FADDI-EC001, broth microdilution in CAMHB): 0.5 µg/mL (≈ 0.418 µM); Minimum inhibitory concentration, Ec FADDI-EC003 (Enterobacter cloacae; Enterobacter cloacae FADDI-EC003, broth microdilution in CAMHB): 1 µg/mL (≈ 0.835 µM); Minimum inhibitory concentration, Ec FADDI-EC006 (Enterobacter cloacae; Enterobacter cloacae FADDI-EC006, broth microdilution in CAMHB): 0.5 µg/mL (≈ 0.418 µM); MIC (Klebsiella pneumoniae; K. pneumoniae FADDI-KP032): 1 µg/mL (≈ 0.835 µM); MIC (Pseudomonas aeruginosa; P. aeruginosa ATCC 27853): 1 µg/mL (≈ 0.835 µM); Minimum inhibitory concentration, Pa ATCC 27853 (Pseudomonas aeruginosa; Pseudomonas aeruginosa ATCC 27853, broth microdilution in CAMHB): 1 µg/mL (≈ 0.835 µM); Minimum inhibitory concentration, Pa FADDI-PA022 (Pseudomonas aeruginosa; Pseudomonas aeruginosa FADDI-PA022, broth microdilution in CAMHB): 4 µg/mL (≈ 3.34 µM); Minimum inhibitory concentration, Pa FADDI-PA025 (Pseudomonas aeruginosa; Pseudomonas aeruginosa FADDI-PA025, broth microdilution in CAMHB): 32 µg/mL (≈ 26.7 µM)
CC[C@@H]1NC(=O)[C@@H](CC(C)C)NC(=O)[C@H](CCN)NC(=O)[C@@H](NC(=O)[C@H](CN)NC(=O)[C@@H](NC(=O)[C@H](CCN)NC(=O)c2ccc(C)cc2C)[C@@H](C)O)CCNC(=O)[C@H]([C@@H](C)O)NC(=O)[C@H](CCN)NC(=O)[C@H](CCN)NC1=O [Compound 89] (X24-[Dab]T[Dap][Dab][Dab][dL][Abu][Dab][Dab]T; lactam 4-C) | – | – | – | 1 (≈ 0.893 µM) | 4 (≈ 3.57 µM) | 1 (≈ 0.893 µM) | <0.125 | <0.125 | 2 (≈ 1.79 µM) | 0.5 (≈ 0.447 µM) | 1 (≈ 0.893 µM) | 4 (≈ 3.57 µM) | – | –

More lines, main results first:

MIC (Acinetobacter baumannii) [µg/mL] | MIC (Klebsiella pneumoniae) [µg/mL] | MIC (Pseudomonas aeruginosa) [µg/mL] | Structure (SMILES) | Minimum inhibitory concentration, Ab A ATCC 17978 (Acinetobacter baumannii) [µg/mL] | Minimum inhibitory concentration, Ab ATCC 19606 (Acinetobacter baumannii) [µg/mL] | Minimum inhibitory concentration, Ab FADDI-AB034 (Acinetobacter baumannii) [µg/mL] | Minimum inhibitory concentration, Ec FADDI-EC001 (Enterobacter cloacae) [µg/mL] | Minimum inhibitory concentration, Ec FADDI-EC003 (Enterobacter cloacae) [µg/mL] | Minimum inhibitory concentration, Ec FADDI-EC006 (Enterobacter cloacae) [µg/mL] | Minimum inhibitory concentration, Pa ATCC 27853 (Pseudomonas aeruginosa) [µg/mL] | Minimum inhibitory concentration, Pa FADDI-PA022 (Pseudomonas aeruginosa) [µg/mL] | Minimum inhibitory concentration, Pa FADDI-PA025 (Pseudomonas aeruginosa) [µg/mL] | Δ log (Treated-Control at 4 h) (P. aeruginosa ATCC 27853) [log10 CFU/mL] | other results
1 (≈ 0.896 µM) | 0.5 (≈ 0.448 µM) | >32 | CCCCCCCC(=O)N[C@@H](CCN)C(=O)N[C@H](C(=O)N[C@H](CO)C(=O)N[C@H]1CCNC(=O)[C@H]([C@@H](C)O)NC(=O)[C@H](CCN)NC(=O)[C@H](CCN)NC(=O)[C@H](CO)NC(=O)[C@@H](CC(C)C)NC(=O)[C@H](CCN)NC1=O)[C@@H](C)O [Compound 6] (Octanoyl-[Dab]T[dS][Dab][Dab][dL]S[Dab][Dab]T; lactam 4-C) | 1 (≈ 0.896 µM) | 1 (≈ 0.896 µM) | 0.5 (≈ 0.448 µM) | 0.25 (≈ 0.224 µM) | 0.25 (≈ 0.224 µM) | 0.25 (≈ 0.224 µM) | >32 | 4 (≈ 3.58 µM) | >32 | – | –
<0.125 | <0.125 | 2 (≈ 1.77 µM) | CCCCCCCC(=O)N[C@@H](CCN)C(=O)N[C@H](C(=O)N[C@H](CO)C(=O)N[C@H]1CCNC(=O)[C@H]([C@@H](C)O)NC(=O)[C@H](CCN)NC(=O)[C@H](CCN)NC(=O)[C@H](C(C)C)NC(=O)[C@@H](CC(C)C)NC(=O)[C@H](CCN)NC1=O)[C@@H](C)O [Compound 5] (Octanoyl-[Dab]T[dS][Dab][Dab][dL]V[Dab][Dab]T; lactam 4-C) | <0.125 | <0.125 | 0.25 (≈ 0.222 µM) | 0.25 (≈ 0.222 µM) | <0.125 | 0.25 (≈ 0.222 µM) | 2 (≈ 1.77 µM) | 4 (≈ 3.54 µM) | 16 (≈ 14.2 µM) | – | –
0.25 (≈ 0.215 µM) | <0.125 | 4 (≈ 3.44 µM) | CCCCCCCC(=O)N[C@@H](CCN)C(=O)N[C@H](C(=O)N[C@H](CO)C(=O)N[C@H]1CCNC(=O)[C@H]([C@@H](C)O)NC(=O)[C@H](CCN)NC(=O)[C@H](CCN)NC(=O)[C@H]([C@@H](C)O)NC(=O)[C@@H](Cc2ccccc2)NC(=O)[C@H](CCN)NC1=O)[C@@H](C)O [Compound 3] (Octanoyl-[Dab]T[dS][Dab][Dab][dF]T[Dab][Dab]T; lactam 4-C) | <0.125 | 0.25 (≈ 0.215 µM) | <0.125 | 0.5 (≈ 0.429 µM) | <0.125 | 0.25 (≈ 0.215 µM) | 4 (≈ 3.44 µM) | 4 (≈ 3.44 µM) | >32 | – | –
0.5 (≈ 0.454 µM) | 0.5 (≈ 0.454 µM) | 8 (≈ 7.27 µM) | CCCCCCCC(=O)N[C@@H](CCN)C(=O)N[C@H](C(=O)N[C@H](CO)C(=O)N[C@H]1CCNC(=O)[C@H]([C@@H](C)O)NC(=O)[C@H](CCN)NC(=O)[C@H](CCN)NC(=O)[C@H](C)NC(=O)[C@@H](CC(C)C)NC(=O)[C@H](CCN)NC1=O)[C@@H](C)O [Compound 2] (Octanoyl-[Dab]T[dS][Dab][Dab][dL]A[Dab][Dab]T; lactam 4-C) | 0.5 (≈ 0.454 µM) | 0.5 (≈ 0.454 µM) | 0.5 (≈ 0.454 µM) | <0.125 | <0.125 | 0.5 (≈ 0.454 µM) | 8 (≈ 7.27 µM) | 8 (≈ 7.27 µM) | >32 | – | –
